Measured values from ChEMBL document CHEMBL1201862, “PubChem BioAssay data set” (2004).
Active and inactive are the calls of the source.

Experiments:
[1] = biological target: T1, Type-1 angiotensin II receptor (Homo sapiens, UniProt P30556); test: AT1 receptor antagonists, dose response, selectivity assay for APJ receptor antagonist project, cell-based, uHTS hits (AID 463214); format: functional;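 also: antagonist potency against angiotensin II stimulated AT1 response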
T1 sequence (P30556 whole entry): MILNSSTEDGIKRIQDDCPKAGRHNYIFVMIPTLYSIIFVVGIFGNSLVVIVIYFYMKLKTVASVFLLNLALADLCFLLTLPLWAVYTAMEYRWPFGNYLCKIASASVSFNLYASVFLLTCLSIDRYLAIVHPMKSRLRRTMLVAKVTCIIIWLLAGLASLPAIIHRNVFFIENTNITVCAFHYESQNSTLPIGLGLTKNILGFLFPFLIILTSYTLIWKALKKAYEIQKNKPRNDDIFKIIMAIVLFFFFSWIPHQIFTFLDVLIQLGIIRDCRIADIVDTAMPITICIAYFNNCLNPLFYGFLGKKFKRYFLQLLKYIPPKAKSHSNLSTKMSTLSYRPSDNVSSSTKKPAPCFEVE

[2] = biological target: T2, Apoptotic protease-activating factor 1 (Homo sapiens, UniProt O14727); format: functional
T2 sequence (O14727 whole entry): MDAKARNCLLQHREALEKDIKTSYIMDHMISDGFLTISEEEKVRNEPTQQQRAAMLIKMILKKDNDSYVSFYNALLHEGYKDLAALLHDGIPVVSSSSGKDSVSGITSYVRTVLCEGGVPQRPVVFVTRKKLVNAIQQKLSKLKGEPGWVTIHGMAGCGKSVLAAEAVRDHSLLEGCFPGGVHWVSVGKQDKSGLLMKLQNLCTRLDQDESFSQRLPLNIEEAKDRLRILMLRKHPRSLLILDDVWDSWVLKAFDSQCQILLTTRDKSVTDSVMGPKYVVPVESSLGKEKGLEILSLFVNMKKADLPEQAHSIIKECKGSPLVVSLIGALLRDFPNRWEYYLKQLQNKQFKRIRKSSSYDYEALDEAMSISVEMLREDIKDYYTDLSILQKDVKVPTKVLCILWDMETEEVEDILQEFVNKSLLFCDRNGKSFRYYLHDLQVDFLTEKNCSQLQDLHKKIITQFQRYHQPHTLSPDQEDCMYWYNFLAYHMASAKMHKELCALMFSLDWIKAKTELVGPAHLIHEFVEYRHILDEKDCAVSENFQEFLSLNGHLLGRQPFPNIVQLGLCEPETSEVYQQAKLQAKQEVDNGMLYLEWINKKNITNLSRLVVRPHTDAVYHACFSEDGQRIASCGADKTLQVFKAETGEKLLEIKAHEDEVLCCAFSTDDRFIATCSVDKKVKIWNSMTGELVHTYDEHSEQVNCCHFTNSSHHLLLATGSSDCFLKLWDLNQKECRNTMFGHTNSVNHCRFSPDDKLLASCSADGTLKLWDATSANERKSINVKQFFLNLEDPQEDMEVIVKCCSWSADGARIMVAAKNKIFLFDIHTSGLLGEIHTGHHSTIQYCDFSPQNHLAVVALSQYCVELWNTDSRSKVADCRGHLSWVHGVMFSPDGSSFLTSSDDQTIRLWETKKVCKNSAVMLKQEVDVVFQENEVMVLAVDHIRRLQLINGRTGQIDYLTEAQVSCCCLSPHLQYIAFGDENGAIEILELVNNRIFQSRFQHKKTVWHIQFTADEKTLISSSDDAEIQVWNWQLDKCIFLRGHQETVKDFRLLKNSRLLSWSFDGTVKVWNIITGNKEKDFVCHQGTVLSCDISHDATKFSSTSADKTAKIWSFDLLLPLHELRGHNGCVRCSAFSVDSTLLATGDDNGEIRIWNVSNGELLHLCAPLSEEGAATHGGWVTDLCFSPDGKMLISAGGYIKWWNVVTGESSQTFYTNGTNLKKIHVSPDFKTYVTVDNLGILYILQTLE

IC50 [2]	Compound	IC50 [1]
	CCC1CCCCN1S(=O)(=O)c1ccc(NC(=O)c2nc(S(C)(=O)=O)ncc2Cl)cc1 (configuration not stated)	5.9 µM (active)
19.3 µM (active)	CCCC[n+]1ccn(C2=C([N-]S(=O)(=O)c3ccc(Cl)cc3)C(=O)c3ccccc3C2=O)c1	
